Test results as given in PubChem BioAssay AID1259408 (Genetic Toxicology Data Bank (GENE-TOX), 2018).
Calls of active or inactive are those of the source. The rule behind the calls is not given here.

Test system: GENE-TOX genotoxicity assays, various organisms and cells
Assay: GENE-TOX mutagenicity studies
Conditions: for call: Assay Type: In vivo carcinogenicity studies
[1] = Species/Cell Type: Nonhuman, Assay Type: Sister-chromatid exchange (SCE) in vitro, Assay Code: SC2+D, Dose Response: With dose response, Evaluation Type: Evaluation B (Post-1980)
[2] = Species/Cell Type: Salmonella typhimurium (one or more of the five standard strains: TA98, TA100, TA1535, TA1537, and TA1538), Assay Type: Histidine reverse gene mutation, Ames assay, Assay Code: SALT, Evaluation Type: Evaluation A (Pre-1980)
[3] = Species/Cell Type: Human diploid fibroblasts, Assay Type: Unscheduled DNA synthesis (UDS) in vitro, DNA effects, Assay Code: UDH+, Evaluation Type: Evaluation A (Pre-1980)
[4] = Species/Cell Type: Saccharomyces cerevisiae, Assay Type: Mitotic recombination or gene conversion, Assay Code: YEH+, Evaluation Type: Evaluation A (Pre-1980)
[5] = Species/Cell Type: Salmonella typhimurium (one or more of the five standard strains: TA98, TA100, TA1535, TA1537, and TA1538), Assay Type: Histidine reverse gene mutation, Ames assay, Assay Code: SAL+, Evaluation Type: Evaluation A (Pre-1980)
[6] = Species/Cell Type: Chinese hamster lung (V79) cells, Assay Type: Forward gene mutation at the HPRT or ouabain locus, Assay Code: V79+, Evaluation Type: Evaluation A (Pre-1980)
[7] = Species/Cell Type: Salmonella typhimurium (one or more of the five standard strains: TA98, TA100, TA1535, TA1537, and TA1538), Assay Type: Histidine reverse gene mutation, Ames assay, Assay Code: SAL+*, Activation: With metabolic activation, Evaluation Type: Evaluation A (Pre-1980)
[8] = Species/Cell Type: Syrian hamster embryo (SHE) cells, Assay Type: Cell transformation, clonal assay, Assay Code: CTC-, Evaluation Type: Evaluation A (Pre-1980)
[9] = Species/Cell Type: Escherichia coli WP2 UVRA, Assay Type: Tryptophan reverse gene mutation, Assay Code: WPU+D, Dose Response: With dose response, Evaluation Type: Evaluation A (Pre-1980)

In the case of `CCS(=O)CCSP(=O)(OC)OC` (configuration not stated), the mutagenic call (Species/Cell Type: Drosophila melanogaster, Assay Type: Sex-linked recessive lethal gene mutation, Assay Code: SRLT, Evaluation Type: Evaluation A (Pre-1980)) is reported as “no conclusion”, the mutagenic call (Species/Cell Type: Human lymphocytes, Assay Type: Sister-chromatid exchange (SCE) in vitro, Assay Code: SCL+D, Dose Response: With dose response, Evaluation Type: Evaluation B (Post-1980)) is reported as “active; positive” and the mutagenic call (Species/Cell Type: Human, Assay Type: Sister-chromatid exchange (SCE) in vitro, Assay Code: SC1+D, Dose Response: With dose response, Evaluation Type: Evaluation B (Post-1980)) is reported as “active; positive”. The mutagenic call (Species/Cell Type: Mammalian polychromatic erythrocytes, Assay Type: Micronucleus test, chromosome aberrations, Assay Code: MNT+, Evaluation Type: Evaluation B (Post-1980)) was “active; positive”, the mutagenic call [1] was “active; positive” and the mutagenic call (Species/Cell Type: Saccharomyces cerevisiae, Assay Type: Mitotic recombination or gene conversion, Assay Code: YEC+, Evaluation Type: Evaluation A (Pre-1980)) was “active; positive”.

For `Cc1cc2nc3ccc(N(C)C)cc3nc2cc1NC(=O)CN(C)N=O`, the mutagenic call [2] was “no conclusion”.

For `CCOS(=O)(=O)c1ccc(C)cc1`, the mutagenic call (Species/Cell Type: Escherichia coli polA (W3119 vs P3478), Assay Type: Rec-assay, DNA effects (bacterial DNA repair), Assay Code: RE1+, Evaluation Type: Evaluation A (Pre-1980)) was “active; positive”, the mutagenic call [3] was “active; positive” and the mutagenic call [4] was “active; positive”. The mutagenic call [5] was “active; positive”, the mutagenic call (Species/Cell Type: Salmonella typhimurium, Assay Type: Forward and reverse gene mutation, host-mediated assay, Assay Code: HMA-, Evaluation Type: Evaluation A (Pre-1980)) was “inactive; negative” and the mutagenic call (Species/Cell Type: Syrian hamster embryo (SHE) cells, Assay Type: Cell transformation, clonal assay, Assay Code: CTC+, Evaluation Type: Evaluation A (Pre-1980)) was “active; positive”.

With `O=C1NC(=O)C(=O)C(=O)N1` the mutagenic call (Species/Cell Type: Neurospora crassa, Assay Type: Aneuploidy, chromosome aberrations, Assay Code: NEN-, Evaluation Type: Evaluation A (Pre-1980)) was “inactive; negative”.

For `CCNCCNc1ccc(CO)c2sc3ccccc3c(=O)c12`, the mutagenic call (Species/Cell Type: Fischer rat embryo (RLV/1706) cells, Assay Type: Cell transformation, viral enhanced, Assay Code: CTR+, Evaluation Type: Evaluation A (Pre-1980)) was “active; positive”.

`ClCc1c2ccccc2c(Cl)c2ccccc12` was tested, and the mutagenic call [5] was “active; positive”.

In the case of `O=CNc1nc(-c2cc([N+](=O)[O-])c[nH]2)cs1`, the mutagenic call [2] is reported as “no conclusion”.

`CCSCCSP(=S)(OC)OC` was tested, and the mutagenic call (Species/Cell Type: Mammalian polychromatic erythrocytes, Assay Type: Micronucleus test, chromosome aberrations, Assay Code: MNT+U, Dose Response: Unconfirmed positive response, Evaluation Type: Evaluation B (Post-1980)) was “active; positive”.

`O=C1c2ccccc2C(=O)c2c1cc(O)c(CO)c2O` was tested, and the mutagenic call [5] was “active; positive”.

For `CC(C)C[C@H](NP(=O)(O)O[C@@H]1O[C@@H](C)[C@H](O)[C@@H](O)[C@H]1O)C(=O)N[C@@H](Cc1c[nH]c2ccccc12)C(=O)O`, the mutagenic call (Species/Cell Type: Human, Assay Type: Sister-chromatid exchange (SCE) in vitro, Assay Code: SC1T, Evaluation Type: Evaluation B (Post-1980)) was “no conclusion”.

In the case of `CC(=O)Nc1ccc(C(O)C(O)c2ccccc2)cc1` (configuration not stated), the mutagenic call [2] is reported as “no conclusion”.

With `CC(=O)O[C@H]1[C@H]2O[C@H]2C2=CC(=O)[C@]3(C[C@]2(C)[C@H]1C)O[C@]3(C)C=O` the mutagenic call (Species/Cell Type: Bacillus subtilis (H17 vs M45), Assay Type: Rec-assay, spot test, DNA effects (bacterial DNA repair), Assay Code: REW+, Evaluation Type: Evaluation A (Pre-1980)) was “active; positive”, the mutagenic call (Species/Cell Type: Neurospora crassa, Assay Type: Reverse gene mutation, Assay Code: NER+, Evaluation Type: Evaluation A (Pre-1980)) was “active; positive” and the mutagenic call (Species/Cell Type: Nonhuman, Assay Type: Sister-chromatid exchange (SCE) in vitro, Assay Code: SC2T, Evaluation Type: Evaluation B (Post-1980)) was “no conclusion”. The mutagenic call (Species/Cell Type: Saccharomyces cerevisiae, Assay Type: Mitotic recombination or gene conversion, Assay Code: YEC+/-*, Activation: With metabolic activation, Evaluation Type: Evaluation A (Pre-1980)) was “inactive; positive without activation, negative with activation”, the mutagenic call [4] was “active; positive” and the mutagenic call (Species/Cell Type: Saccharomyces cerevisiae, Assay Type: Reverse gene mutation, Assay Code: YER+, Evaluation Type: Evaluation A (Pre-1980)) was “active; positive”. For the same compound, the mutagenic call [2] was “no conclusion”.

With `CC(=O)OCCCCCCBr` the mutagenic call (Species/Cell Type: Mammalian polychromatic erythrocytes, Assay Type: Micronucleus test, chromosome aberrations, Assay Code: MNTT, Evaluation Type: Evaluation B (Post-1980)) was “no conclusion”.

`O=C1c2ccccc2C(=O)c2c(NCCNCCO)ccc(NCCNCCO)c21` was tested, and the mutagenic call [1] was “active; positive”.

For `CC[C@@]1(O)C[C@H](O[C@H]2C[C@H](N(C)C)[C@H](O)[C@H](C)O2)c2c(cc3c(c2O)C(=O)c2c(O)cccc2C3=O)[C@H]1C(=O)OC`, the mutagenic call [2] was “no conclusion”.

`Cc1ccc2cc3c(ccc4ccccc43)c3c2c1C(=O)C3` was tested, and the mutagenic call [6] was “active; positive”, the call (Species/Cell Type: Nonhuman, Assay Code: CCG+L, Evaluation Type: Evaluation A (Pre-1980)) was “active; positive” and the mutagenic call [7] was “active; positive”.

`NC(=O)C#CC(N)=O` was tested, and the mutagenic call (Species/Cell Type: Bacillus subtilis (H17 vs M45), Assay Type: Rec-assay, spot test, DNA effects (bacterial DNA repair), Assay Code: REW-, Evaluation Type: Evaluation A (Pre-1980)) was “inactive; negative”.

For `CC(C)CCC[C@@H](C)[C@H]1CC[C@H]2[C@@H]3CC=C4C[C@@H](O)CC[C@]4(C)[C@H]3CC[C@]12C`, the mutagenic call [8] was “inactive; negative”.

For `CON(C)C(=O)Nc1ccc(Br)cc1`, the mutagenic call (Species/Cell Type: Hordeum vulgare (barley), Assay Type: Chromosome aberrations, Assay Code: HOC-, Evaluation Type: Evaluation A (Pre-1980)) was “inactive; negative”.

In the case of `CCN(CC)c1ccc2c(-c3ccc(S(=O)(=O)O)cc3S(=O)(=O)[O-])c3ccc(=[N+](CC)CC)cc-3oc2c1`, the mutagenic call (Species/Cell Type: Bacillus subtilis (H17 vs M45), Assay Type: Rec-assay, spot test, DNA effects (bacterial DNA repair), Assay Code: REWT, Evaluation Type: Evaluation A (Pre-1980)) is reported as “no conclusion” and the mutagenic call (Species/Cell Type: Bacillus subtilis (H17 vs M45T), Assay Type: Rec-assay, spot test, DNA effects (bacterial DNA repair), Assay Code: REXT, Evaluation Type: Evaluation A (Pre-1980)) is reported as “no conclusion”.

In the case of `c1cc2cc3c4c(ccc5cc6c(c1CCC6)c2c54)CCC3`, the mutagenic call [7] is reported as “active; positive”.

With `O=[N+]([O-])c1ccc(/C=N\O)o1` the mutagenic call (Species/Cell Type: Escherichia coli WP2, Assay Type: Tryptophan reverse gene mutation, Assay Code: WP2-, Evaluation Type: Evaluation A (Pre-1980)) was “inactive; negative”, the mutagenic call [9] was “active; positive” and the mutagenic call [5] was “active; positive”.

With `BrCc1c2ccccc2cc2c1ccc1ccccc12` the mutagenic call [6] was “active; positive”, the mutagenic call (Species/Cell Type: Drosophila melanogaster, Assay Type: Sex-linked recessive lethal gene mutation, Assay Code: SRL+, Evaluation Type: Evaluation A (Pre-1980)) was “active; positive” and the mutagenic call (Species/Cell Type: Escherichia coli WP2, Assay Type: Tryptophan reverse gene mutation, Assay Code: WP2+D, Dose Response: With dose response, Evaluation Type: Evaluation A (Pre-1980)) was “active; positive”. For the same compound, the mutagenic call [9] was “active; positive”, the mutagenic call [3] was “active; positive” and the call (Species/Cell Type: Nonhuman, Assay Code: CCG+, Evaluation Type: Evaluation A (Pre-1980)) was “active; positive”. The mutagenic call [1] was “active; positive” and the mutagenic call [8] was “inactive; negative”.

For `COc1ccc2ccc(=O)oc2c1`, the mutagenic call (Species/Cell Type: Allium cepa, Assay Type: Chromosome aberrations, Assay Code: ALC+D, Dose Response: With dose response, Evaluation Type: Evaluation A (Pre-1980)) was “active; positive”.
